Legend:
[1] = Droplet and particle size by photon correlation spectroscopy; assay type: physicochemical
Procedure: Modeling of E/F microemulsions: An ethanol-in-fluorocarbon(E/F) microemulsion was made having the following components: perflubron (0.7382 g), PDFOA (0.3195 g), and ethanol (0.3603 g). The weight of ethanol corresponded to 25.4% w/w of the final microemulsionor 65.7% of the microemulsion window (see FIG. 2). The average droplet size of 34.9 nm determined by photon correlation spectroscopy (dynamic light scattering at 11.3° for 300 seconds) agreed very well with the predicted ethanol droplet size based on simple mathematical modeling of surfactant-coated ethanol droplets. The total surface area of ethanol droplets that have an average diameter of 34.9 nm can be calculated in a series of equations as follows: Volume of one ethanol droplet=πd^3/6=2.226×10^−17 cm^3 (Equation 1) Total number of ethanol droplets=(0.3603 g[…])/[…]=1.989×10^16 droplets (Equation 2) Total surface area of each droplet=πd^2=3.827×10^−11 cm^2 (Equation 3) Total surface area of all ethanol droplets=1.989×10^16 droplets*3.827×10^−11 cm^2=760966 cm^2. (Equation 4) If we assume that PDFOA head-group (Mw 414.06 g/mol) occupies a space of 30 Å^2, then we can calculate the number of PDFOA molecules needed to cover the total surface area of all ethanol droplets from Equation 4 as: Total number of PDFOA molecules needed to cover the total surface area of all ethanol droplets=760966 cm^2/30×10^−16 cm^2=2.537×10^20 molecules of PDFOA. (Equation 5) Thus, 2.537×10^20 molecules of PDFOA would theoretically be needed to coat all of the surface area provided by all of the ethanol droplets. The ratio of ethanol to PDFOA molecules 65.7% through the microemulsion window was 10:1. […] The actual amount of PDFOA used to prepare the microemulsion was 0.3195 g which was within 3% of the predicted amount (0.3195 g/0.3282 g=0.973 or 97.3%) based on the measured droplet size of ethanol. Thus, this simple modeling supports the formation of a E/F microemulsion as well as the particle sizing method used.
To determine the existence of an oil-in-water microemulsion window for the microemulsion precursor, exactly two (2) milligrams of emulsifying wax were weighed accurately into ten separate 7-mL glass vials and melted at 50° C. on a temperature calibrated magnetic hot plate. Water (0.2 μm filtered) was then added (750–1000 μL) to form a homogeneous milky slurry in the stirring water at 50° C. To form the microemulsion precursor, the surfactant polyoxy 20 stearyl ether (100 mM) in water was added (0–250 μL) so that the final surfactant concentration ranged from 0 mM to 25 mM in the ten vials. The microemulsion precursor was then removed from heat (52–54° C.) and allowed to cool to 25° C. while stirring. […] Thus, an apparent microemulsion window was defined. One hundred (100) μL of each cooled system was taken and diluted with 900 μL water. The particle size of the diluted solid nanoparticles was determined using a Coulter N4 Plus Sub-Micron Particle Sizer at 20° C. by scattering light at 90° for 120 seconds. The particle sizes of systems with no surfactant added could not be determined since the systems contained precipitates that were greater than 3000 nm in diameter. […] To determine if the measured droplet sizes in either the microemulsion nanotemplate or the cured solid nanoparticles were due to the presence of surfactant micelles, samples were made as described above with no emulsifying wax and with final surfactant concentrations ranging from 0 mM to 100 mM in water. […] It is likely that the relatively heterogeneous nature of the polymeric surfactant makes the determination of its CMC difficult using conventional techniques. Photon correlation spectroscopy, using a Coulter N4 Plus Submicron Particle Sizer, was used to determine the existence and the size of the surfactant micelles.
Preparation of cationic nanoparticles made from microemulsion precursors: Exactly 2 mg of emulsifying wax was placed into six 7-ml glass scintillation vials. […]

[2] = Solubility of fluorosurfactants in perflubron; settings: PDFOA at 25° C.
[3] = Pseudo-phase diagram fluorosurfactant screen: ethanol incorporation in E/F microemulsions; assay type: physicochemical; settings: maximum ethanol in stable clear E/F microemulsion
Procedure: Pseudo-Phase Diagrams: Fluorosurfactant Screen. Studies focused on E/F microemulsions that allowed for maximum solubilization of ethanol. […] Briefly, a small amount of ethanol was added to defined perflubron (X %)/(fluorosurfactant) (100-X %) mixtures in an attempt to solubilize ethanol and define the microemulsion window (i.e., portion of diagram that represents a clear system). […] While the mixture was stirring, ethanol was added in 5 μL (=[…] ethanol) aliquots. The clarity (transparency) of the systems as a function of the percentages of the three phases was plotted in order to define the microemulsion window, if any. This screen was repeated for each of the fluorosurfactant candidates.

**Q.** For “ASF-pal: asialofetuin derivatized with about 12 palmitate arms per molecule, hepatocyte-specific ligand”, which “Size of micelles formed alone in water” value ([1]; 67 μg/mL) is on record?
**A.** 3–15 nm

**Q.** And the “Size of larger aggregates formed alone in water” value ([1]; 1340 μg/mL)?
**A.** 40–300 nm

**Q.** And the “Size of micelles formed alone in water” value ([1]; 1340 μg/mL)?
**A.** 3–10 nm

**Q.** What about the “Effect of adding ASF-pal on particle size of cured nanoparticles” value ([1]; ASF-pal added to 200 μg nanoparticles per mL, 1 hour at 25° C.) of the same compound?
**A.** only a small effect

**Q.** Which Solubility in perflubron [2] does the source give for `OCCC(F)(F)C(F)(F)C(F)(F)C(F)(F)C(F)(F)C(F)(F)F` [D3, Tridecafluoro-1-octanol] here?
**A.** soluble

**Q.** For `O=C(O)C(F)(F)C(F)(F)C(F)(F)C(F)(F)C(F)(F)C(F)(F)C(F)(F)C(F)(F)C(F)(F)C(F)(F)C(F)(F)C(F)(F)C(F)(F)F` [Perfluorotetradecanoicacid (D6), Perfluorotetradecanoicacid], which “Final (Ethanol) % w/w Solubilized in Perflubron/Fluorosurfactant (70/3 w/w)” value [3] is on record?
**A.** 66.6 % w/w

**Q.** Which “Final (Ethanol) % w/w Solubilized in Perflubron/Fluorosurfactant (70/3 w/w)” value [3] does the source give for `O=C(O)C(F)(F)C(F)(F)C(F)(F)C(F)(F)C(F)(F)C(F)(F)C(F)(F)C(F)(F)C(F)(F)C(F)(F)C(F)(F)F` [Perfluorododecanoicacid (D7), Perfluorododecanoicacid] here?
**A.** 59.2 % w/w

**Q.** Which “Effect of GdAcAc entrapment on particle sizes of cured nanoparticles” value ([1]; 0.1 mg to 1 mg in emulsifying wax and Brij 72 nanoparticles (2 mg/mL)) does the source give for `CC(=O)C=C(C)[O-].CC(=O)C=C(C)[O-].CC(=O)C=C(C)[O-].[Gd+3]` [GdAcAc, Gadolinium acetylacetonate] here?
**A.** little or no effect

**Q.** What about the “Particle size of cured nanoparticles” value ([1]; cooled to 25° C.) of the same compound?
**A.** about 50 nm

**Q.** For `COC(=O)C(F)(F)C(F)(F)C(F)(F)C(F)(F)C(F)(F)C(F)(F)C(F)(F)F` [D8, Pentadecafluoromethyloctanoate], which Solubility in perflubron [2] is on record?
**A.** soluble

**Q.** With `O=C(O)C(F)(F)C(F)(F)C(F)(F)C(F)(F)C(F)(F)C(F)(F)F` [D5, Tridecafluoroheptanoicacid] as the compound, how does the Solubility in perflubron [2] read?
**A.** soluble

**Q.** Which “Final (Ethanol) % w/w Solubilized in Perflubron/Fluorosurfactant (70/3 w/w)” value [3] does the source give for `O=C(O)C(F)(F)C(F)(F)C(F)(F)C(F)(F)C(F)(F)C(F)(F)C(F)(F)F` [PDFOA, Pentadecafluorooctanoicacid] here?
**A.** up to 37.2 % w/w

**Q.** What about the “Final (Ethanol) % w/w Solubilized in Perflubron/Fluorosurfactant (70/3 w/w)” value ([3]; listed as Pentadecafluorooctanoicacid (PDFOA)) of the same compound?
**A.** 37.2 % w/w

**Q.** And the Solubility in perflubron [2]?
**A.** did not dissolve

— patent US7153525B1, “Microemulsions as precursors to solid nanoparticles” (The University of Kentucky Research Foundation, priority 2000, dated 2006)
